Key:
Assay type in all cases: in vivo
[1] = system: barnyardgrass (Echinochloa crus-galli); test: Test G Pre-Emergence Protocol; conditions: Echinochloa crus-galli, pre-emergence, 312 h, evaluated after 13 days
Procedure, shortened: (§1)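 Test compound in 0.5% Tween 20 acetone/water (50:50) was applied at three rates (15.625, 62.5, 250 g/ha) to soil sown one day earlier. After 13 days plants were scored for injury, where 0 means unaffected and 100 means completely damaged.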

corn (Zea mays) [2] = test: Test G Pre-Emergence Protocol; conditions: Zea mays, pre-emergence, 312 h, evaluated after 13 days
Procedure, shortened: as §1

[3] = system: giant foxtail (Setaria faberi); test: Test G Pre-Emergence Protocol; conditions: Setaria faberi, pre-emergence, 312 h, evaluated after 13 days
Procedure, shortened: as §1

[4] = system: ivy-leaved morning glory (Ipomoea hederacea); test: Test G Pre-Emergence Protocol; conditions: Ipomoea, pre-emergence, 312 h, evaluated after 13 days
Procedure, shortened: as §1

[5] = system: redroot pigweed (Amaranthus retroflexus); test: Test G Pre-Emergence Protocol; conditions: Amaranthus retroflexus, pre-emergence, 312 h, evaluated after 13 days
Procedure, shortened: as §1

[6] = system: velvetleaf (Abutilon theophrasti); test: Test G Pre-Emergence Protocol; conditions: Abutilon theophrasti, pre-emergence, 312 h, evaluated after 13 days
Procedure, shortened: as §1

[7] = system: barnyardgrass (Echinochloa crus-galli); test: Test G Post-Emergence Protocol; conditions: Echinochloa crus-galli, post-emergence, 312 h, read-out: Barnyardgrass damage rating
Procedure, shortened: (§2)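 Scores run 0 (no damage) to 100 (total damage) and were taken 13 days after spraying. Plants had been raised in pots for 8 days under glasshouse control (24/16 °C, 14 h photoperiod, 65% humidity) and then treated at 15.625, 62.5 or 250 g/ha.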

corn (Zea mays) [8] = test: Test G Post-Emergence Protocol; conditions: Zea mays, post-emergence, 312 h, read-out: Corn damage rating
Procedure, shortened: as §2

[9] = system: giant foxtail (Setaria faberi); test: Test G Post-Emergence Protocol; conditions: Setaria faberi, post-emergence, 312 h, read-out: Foxtail, Giant damage rating
Procedure, shortened: as §2

[10] = system: ivy-leaved morning glory (Ipomoea hederacea); test: Test G Post-Emergence Protocol; conditions: Ipomoea, post-emergence, 312 h, read-out: Morningglory, Ivy-leaved damage rating
Procedure, shortened: as §2

[11] = system: redroot pigweed (Amaranthus retroflexus); test: Test G Post-Emergence Protocol; conditions: Amaranthus retroflexus, post-emergence, 312 h, read-out: Pigweed, Redroot damage rating
Procedure, shortened: as §2

[12] = system: velvetleaf (Abutilon theophrasti); test: Test G Post-Emergence Protocol; conditions: Abutilon theophrasti, post-emergence, 312 h, read-out: Velvetleaf damage rating
Procedure, shortened: as §2

[13] = 15.625 g ai/ha, evaluated after 13 days (100=total damage to plant; 0=no damage to plant)
[14] = 62.5 g ai/ha, evaluated after 13 days, 100=total damage to plant, 0=no damage to plant
[15] = 250 g ai/ha, evaluated after 13 days, 100=total damage to plant, 0=no damage to plant

CN1C[C@@H](c2cccc(C(F)(F)F)c2)[C@H](C(=O)Nc2cccnc2F)C1=O [Compound 1823]
0%: pest or weed control at 15.625 g/ha ([1]; 15.625 g ai/ha, read-out: Barnyardgrass damage rating (100=total damage to plant; 0=no damage to plant)) | pest or weed control at 62.5 g/ha ([1]; 62.5 g ai/ha, 100=total damage to plant, 0=no damage to plant, read-out: Barnyardgrass damage rating) | pest or weed control at 250 g/ha ([1]; 250 g ai/ha, read-out: Barnyardgrass damage rating (100=total damage to plant; 0=no damage to plant)) | plant injury at 15.625 g/ha (corn (Zea mays) [2]; 15.625 g ai/ha, read-out: Corn damage rating (100=total damage to plant; 0=no damage to plant)) | plant injury at 62.5 g/ha (corn (Zea mays) [2]; 62.5 g ai/ha, 100=total damage to plant, 0=no damage to plant, read-out: Corn damage rating) | plant injury at 250 g/ha (corn (Zea mays) [2]; 250 g ai/ha, read-out: Corn damage rating (100=total damage to plant; 0=no damage to plant)) | pest or weed control at 15.625 g/ha ([3]; 15.625 g ai/ha, read-out: Foxtail, Giant damage rating (100=total damage to plant; 0=no damage to plant)) | pest or weed control at 62.5 g/ha ([3]; 62.5 g ai/ha, 100=total damage to plant, 0=no damage to plant, read-out: Foxtail, Giant damage rating) | pest or weed control at 250 g/ha ([3]; 250 g ai/ha, read-out: Foxtail, Giant damage rating (100=total damage to plant; 0=no damage to plant)) | pest or weed control at 15.625 g/ha ([4]; 15.625 g ai/ha, read-out: Morningglory, Ivy-leaved damage rating (100=total damage to plant; 0=no damage to plant)) | pest or weed control at 62.5 g/ha ([4]; 62.5 g ai/ha, 100=total damage to plant, 0=no damage to plant, read-out: Morningglory, Ivy-leaved damage rating) | pest or weed control at 250 g/ha ([4]; 250 g ai/ha, read-out: Morningglory, Ivy-leaved damage rating (100=total damage to plant; 0=no damage to plant)) | pest or weed control at 15.625 g/ha ([5]; 15.625 g ai/ha, read-out: Pigweed, Redroot damage rating (100=total damage to plant; 0=no damage to plant)) | pest or weed control at 62.5 g/ha ([5]; 62.5 g ai/ha, 100=total damage to plant, 0=no damage to plant, read-out: Pigweed, Redroot damage rating) | pest or weed control at 250 g/ha ([5]; 250 g ai/ha, read-out: Pigweed, Redroot damage rating (100=total damage to plant; 0=no damage to plant)) | pest or weed control at 15.625 g/ha ([6]; 15.625 g ai/ha, read-out: Velvetleaf damage rating (100=total damage to plant; 0=no damage to plant)) | pest or weed control at 62.5 g/ha ([6]; 62.5 g ai/ha, 100=total damage to plant, 0=no damage to plant, read-out: Velvetleaf damage rating) | pest or weed control at 250 g/ha ([6]; 250 g ai/ha, read-out: Velvetleaf damage rating (100=total damage to plant; 0=no damage to plant)) | pest or weed control at 15.625 g/ha [7, 13] | pest or weed control at 62.5 g/ha [7, 14] | pest or weed control at 250 g/ha [7, 15] | plant injury at 15.625 g/ha (corn (Zea mays) [8]; [13]) | plant injury at 62.5 g/ha (corn (Zea mays) [8]; [14]) | plant injury at 250 g/ha (corn (Zea mays) [8]; [15]) | pest or weed control at 15.625 g/ha [9, 13] | pest or weed control at 62.5 g/ha [9, 14] | pest or weed control at 250 g/ha [9, 15] | pest or weed control at 15.625 g/ha [10, 13] | pest or weed control at 62.5 g/ha [10, 14] | pest or weed control at 250 g/ha [10, 15] | pest or weed control at 15.625 g/ha [11, 13] | pest or weed control at 62.5 g/ha [11, 14] | pest or weed control at 250 g/ha [11, 15] | pest or weed control at 15.625 g/ha [12, 13] | pest or weed control at 62.5 g/ha [12, 14] | pest or weed control at 250 g/ha [12, 15]
